Measurements from patent US11072592B2, “Small molecules that enable cartilage rejuvenation” (The Regents of the University of California, priority 2015, dated 2021).
“Also recorded” adds a separate entry of the source.

Key:
pSTAT3 and MYC = test: Western blot of pSTAT3 and MYC in adult pig articular chondrocytes; type: cell-based; conditions: for levels of MYC / levels of pSTAT3: adult pig articular chondrocytes, treated vs untreated, relative to histone H3
From the text: Only early passages of chondrocytes (passage 0-2) were used for experimentation to avoid de-differentiation and loss of cartilage phenotype (Wu et al., 2014). Cartilage explants were made using 1, 2 or 8 mm biopsy punch and wet weight of each explant determined prior to experimentation. For cell isolation cartilage tissue was digested as described previously (Wu et al., 2015). Postnatal paraffin embedded joint and growth plate specimens were kindly donated by Dr Marcel Karperien from the University of Twente (Netherlands) and Dr Nick Bernthal from University of California Los Angeles. All donated material was anonymous and carried no personal identifiers. Cell culture reagents were purchased from Life Technologies, Inc. (Grand Island, N.Y.). Growth factors LIF, OSM, IL-6, TNF-α, IL-1β were purchased from Life Technologies, Inc (Grand Island, N.Y.). STATTIC, 10058-F4, SCl44 hydrochloride, and CP-690550 were purchased from Sigma Aldrich (St. Louis, Mo.). RCGD 423 (N-(4-Bromophenyl)-4-phenyl-1,3-thiazol-2-amine) was synthesized and provided by MolPort (Riga, Latvia). Fetal, adult and pig chondrocytes were cultured in DMEM F12 medium containing 10% (vol/vol) fetal bovine serum and 1% Penicillin-Streptomycin (vol/vol) at 37° C. in a humidified atmosphere of 95% aid and 5% CO2. Media was replenished with DMEM F12 medium containing 1% (vol/vol) fetal bovine serum and 1% Penicillin-Streptomycin (vol/vol) once treatments were added. For 3-dimensional (3D) cell cultures adult human articular chondrocytes were incubated with or without RCGD 423 using 10% solution of Mebiol® hydrogel from Cosmo Bio (Carlsbad, Calif.) in X-vivo 15 serum free medium from Lonza (Walkersville, Md.) as described previously (Wu et al., 2014).
Treated and non-treated ells were lysed in RIPA Lysis and Extraction Buffer (Pierce, Rockford, Ill.) containing protease inhibitors (Pierce) followed by sonication with a 15-second pulse at a power output of 2 using the VirSonic 100 (SP Industries Company, Warminster, Pa.). Protein concentrations were determined by BCA protein assay (Pierce). Proteins were resolved with SDS-PAGE utilizing 4-15% Mini-PROTEAN TGX Precast Gels and transferred to Trans-Blot Turbo Transfer Packs with a 0.2-μm pore-size nitrocellulose membrane. The SDS-PAGE running buffer, 4-15% Mini-PROTEAN TGX Precast Gels, Trans-Blot Turbo Transfer Packs with a 0.2-μm pore-size nitrocellulose membrane were purchased from Biorad (Hercules, Calif.). Nitrocellulose membranes were blocked in 5% nonfat milk in 0.05% (v/v) Tween 20 (PBST) (Corning, Manassas, Va.). Membranes were then incubated with primary antibodies phospho-STAT3 (#9131), MYC (#5605), NF-κB p65 (#D14E12), pAKT (#9272) Histone 3 (#9715) from Cell Signaling, (Danvers, Mass.); MEK1/2 (ab70613) and p38 (ab795) from Abcam (Cambridge, Mass.) overnight. After washing in PBS containing 0.05% (v/v) Tween 20 (PBST), membranes were incubated with Goat anti-Rabbit IgG (H+L) Secondary Antibody (Thermo Scientific Rockford, Ill.). After washing, membranes were developed with the Clarity Western ECL Blotting Substrate (Hercules, Calif.).

cartilage explants = test: Cartilage explant culture: tissue expansion, COL2 and GAG content; type: cell-based, pig; conditions: for expansion of cartilage tissue in explants: cartilage explants/plugs in culture
From the text: The same stimulatory effect was achieved after treatment of explants with CRMs identified in our small molecule screen. […] This can test if activation of p-STAT3 and c-MYC by selected small molecules CRM-398 and -423 can result in in situ expansion of articular cartilage tissue.
Mature articular cartilage is comprised of chondrocytes contained within lacunae surrounded by dense extracellular matrix. In order for a regenerative response to occur, proliferation, survival and migration must all proceed in concert. […] We designed two sets of experiments to assess the ability of RCGD 423 to operate in this capacity. First, RCGD 423 or cytokines implicated in the growth and differentiation of articular cartilage were incubated with small plugs of cartilage tissue; after 5 weeks, the amount of COL2 and glycosaminoglycans (GAGs) were determined.
Cartilage explants were washed with PBS and then directly digested or stored at […]. For digestion, explants were transferred in digestion buffer composed of 1 mg/mL proteinase K in Tris/Ethylene diamine tetra-acetic acid (EDTA) buffer (pH 7.6) containing 18.5 μg/mL iodoacetamide and 1 μg/mL pepstatin A) for 16-72 h at 56° C. After complete digestion the GAG content was spectrophotometrically determined with 1,9-dimethylmethylene blue chloride staining in the phosphate buffer with ethylene diamine tetra-acetic acid buffer (14.2 g/L Na2HPO4 and 3.72 g/L Na2EDTA, pH 6.5) using an Infinite M1000 Pro microplate reader (Tecan) at an absorbance of 520 nm with chondroitin sulfate as a standard. Amount of total DNA in explants was determined by a CyQuant DNA Kit (Molecular Probes by Life Technology) using Qubit 1.0 fluorometer (Invitrogen).
Cultured explants were first digested in testicular hyaluronidase (0.05% in 50 mM HEPES) for 2 hours at 37° C. 0.5M glacial acetic acid was added to digestion solution to maximize the collagen swelling and provide best pepsin access. Pepsin (250 μg/ml) was then used to further digest the pellets in combination with rotation and occasional gentle vortexing at 4° C. for 18-24 hours. Cold tris base and NaOH were added to the digestion solution to neutralize the acetic acid. Digestion solution was vigorously vortexed immediately, and subsequently rotated at 4° C. overnight to maximize collagen solubility. Tubes were centrifuged to separate undigested tissue and supernatant. Any undigested tissue was subjected to the digestion process again. All supernatants were combined for ELISA. Concentration of collagen II in the supernatant was measured by Type I/II Collagen Detection Kit (Chondrex, Inc, Redmond, Wash.), according to manufacturer's instruction and normalized either to DNA content or wet weight of the explants determined prior to experimentation.

[1] = pig adult articular chondrocytes, 1 μM

Compound	levels of MYC (pSTAT3 and MYC)	levels of pSTAT3 (pSTAT3 and MYC)	levels of c-MYC (pSTAT3 and MYC; [1])	levels of p-STAT3 (pSTAT3 and MYC; [1])	COL2 (cartilage explants; after 5 weeks)	glycosaminoglycans (GAGs) (cartilage explants; after 5 weeks)	expansion of cartilage tissue in explants (cartilage explants)
Brc1ccc(Nc2nc(-c3ccccc3)cs2)cc1 [RCGD 423, N-(4-Bromophenyl)-4-phenyl-1,3-thiazol-2-amine]	strong increases	strong increases	elevated	elevated	increases	increases	strong expansion
LIF: interleukin 6 (IL-6)-class cytokine	increase	increase	–	–	–	–	significant expansion; also recorded: small expansions
